From patent US20210238162A1, “CHEMICAL COMPOUNDS” (GlaxoSmithKline Intellectual Property Development Limited, priority 2015, published 2021) come the findings set out here.

Counter-ions that a name gives are not always drawn. Like-named read-outs stand apart in the source and are kept apart here.

The subject of one assay is male C57BL/mdx mice. The experiment in a line: In vivo functional response to eccentric contraction-induced muscle damage in mdx mice (Duchenne Muscular Dystrophy model). Also noted: species or system mouse. To be noted: 30 mg/kg BID; 8 month-old male C57BL/mdx mice; FIG. 2. From the text: (§1) Under anesthesia, the right hind limb of a mouse is restrained at the knee and the foot attached to a motorized footplate/force transducer. Needle electrodes are inserted into the upper limb, either side of the sciatic nerve and a current sufficient to elicit a maximal muscle contraction is applied. Muscle tension is produced by moving the footplate to lengthen the plantarflexor muscles while the limb is under maximal stimulation. This is repeated 60 times to fatigue the muscles of the lower limb. Anesthesia, limb immobilization and limb stimulation are then repeated at regular intervals to measure maximal isometric force in the recovering limb. 7 to 9 animals are tested for each test condition.
The force deficit and recovery kinetics following eccentric contraction-induced muscle damage was also evaluated in middle-aged (8 month-old) male C57BL/mdx mice, a preclinical model of Duchenne Muscular Dystrophy. In this dystrophin-null background, the protocol elicited a greater functional deficit (˜75%) and a protracted recovery interval, as shown in the eccentric vehicle controls.

The test system of a further assay is mdx mice. The experiment in a line: Functional repair following limb muscle injury in mdx mice (FIG. 2). Type of assay: in vivo.
The target in assay [1] is T1, haematopoietic prostaglandin D synthase (H-PGDS) (Homo sapiens, UniProt O60760).
T1 construct: Full length human H-PGDS cDNA (Invitrogen Ultimate ORF IOH13026) was amplified by PCR; made in house; host or cells: E. coli BL21 (DE3*), vector pET22b+
T1 sequence (O60760 whole entry): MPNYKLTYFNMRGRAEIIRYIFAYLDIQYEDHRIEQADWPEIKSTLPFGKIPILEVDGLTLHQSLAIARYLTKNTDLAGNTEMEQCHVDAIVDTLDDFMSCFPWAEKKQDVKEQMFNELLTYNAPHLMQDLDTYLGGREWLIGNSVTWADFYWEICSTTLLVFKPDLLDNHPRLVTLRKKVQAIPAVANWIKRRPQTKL
The experiment in a line: H-PGDS RapidFire High Throughput Mass Spectrometry Assay. It counts as biochemical. A digest of the protocol:
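PGH2 (~10 μM burst) generated in situ from arachidonic acid by FLAG-tagged human COX-2 (Sf9-expressed), then converted to PGD2 by full-length human His-tagged H-PGDS from E. coli. PGD2 and PGF2α (substrate surrogate) quantified by RapidFire SPE-triple quadrupole MS; percent conversion calculated.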

The subject of a further assay is male C57Bl/6N mice. The experiment in a line: In vivo functional response to muscle injury (eccentric contraction-induced muscle fatigue). Also noted: species or system mouse. To be noted: FIG. 1.
Excerpt: as §1

Setting [2] is: H-PGDS RapidFire MS assay, mean pIC50, read-out: Potency Range (mean pIC50) (converted).

`O=C(N[C@H]1CCNC1=O)c1cnc2cc(OC(F)F)c(F)cc2c1` [Example 48, (S)-7-(Difluoromethoxy)-6-fluoro-N-(2-oxopyrrolidin-3-yl)quinoline-3-carboxamide]: in the assay on male C57BL/mdx mice, the “force deficit at 24-hours” value is listed as “significantly blunted the force deficit at 24-hours”; the “rate and extent of functional recovery” value is “improved both the rate and extent of functional recovery”. Moreover, the “protection and acceleration of functional repair dose response curves of PGDS Inhibition” value with mdx mice is “protection and acceleration of functional repair”. In addition, the IC50 in assay [1] (setting [2]) is 10 to 79.4 nM.
Turning to `O=C(NC1CCCOC1)c1cnc2cc(OC(F)F)c(Cl)cc2c1` (stereo not drawn) [Example 149, 6-Chloro-7-(difluoromethoxy)-N-(tetrahydro-2H-pyran-3-yl)quinoline-3-carboxamide], the IC50 in assay [1] (setting [2]) is 10 to 79.4 nM.
Same read-out and setting: under `CC(C)(O)[C@H]1CC[C@H](NC(=O)c2cnc3cc(OC(F)F)c(Br)cc3c2)CC1` [Example 152, 6-Bromo-7-(difluoromethoxy)-N-(trans-4-(2-hydroxypropan-2-yl)cyclohexyl)quinoline-3-carboxamide] stands less than 10 nM.
The same measure, in the same setting: the value for `O=C(NC1CCC(N2CCOCC2)CC1)c1cnc2cc(OC(F)F)c(F)cc2c1` (stereo not drawn) [Example 68, 7-(Difluoromethoxy)-6-fluoro-N-(4-morpholinocyclohexyl)quinoline-3-carboxamide trifluoroacetic Acid Salt] was 10 to 79.4 nM.
Regarding `CC(C)(O)[C@H]1CC[C@H](NC(=O)c2cnc3cc(OC(F)F)ccc3c2)CC1` [Example 6, 7-(Difluoromethoxy)-N-((trans)-4-(2-hydroxypropan-2-yl)cyclohexyl)quinoline-3-carboxamide], in the assay on male C57Bl/6N mice (PO 1, 3 and 10 mg/kg BID beginning 10 min prior to eccentric contraction challenge), the “kinetics of recovery of maximal isometric force” value is recorded as “acceleration in the kinetics of recovery”. In the assay with male C57Bl/6N mice (PO 3 and 10 mg/kg BID), the “initial magnitude of the injury (isometric limb force 24-hours following protocol initiation)” value is recorded as “reduced the initial magnitude of the injury”.
Turning to `COc1cccc2cc(C(=O)Nc3nccs3)cnc12` [Example 28, 8-Methoxy-N-(thiazol-2-yl)quinoline-3-carboxamide], in assay [1] (setting [2]), the IC50 was 10 to 79.4 nM.
For `O=C(N[C@H]1CC[C@@](O)(C(F)F)CC1)c1cnc2cc(OC(F)F)c(Cl)cc2c1` [Example 234, 6-Chloro-7-(difluoromethoxy)-N-((1r,4r)-4-(difluoromethyl)-4-hydroxycyclohexyl)quinoline-3-carboxamide], in assay [1] (setting [2]), the IC50 was 10 to 79.4 nM.
Still for that read-out and setting: the value for `O=C(NC1CCN(c2ccccn2)CC1)c1cnc2cc(OC(F)F)c(F)cc2c1` [Example 95, 7-(Difluoromethoxy)-6-fluoro-N-(1-(pyridin-2-yl)piperidin-4-yl)quinoline-3-carboxamide] was less than 10 nM; that for `O=C(N[C@H]1CC[C@H](N[C@H](CO)C(F)(F)F)CC1)c1cnc2cc(OC(F)F)c(Cl)cc2c1` [Example 135, 6-Chloro-7-(difluoromethoxy)-N-(trans-4-(((R)-1,1,1-trifluoro-3-hydroxypropan-2-yl)amino)cyclohexyl)quinoline-3-carboxamide] was less than 10 nM; that for `C[C@]1(O)C[C@@H](NC(=O)c2cnc3cc(OC(F)F)c(F)cc3c2)C1` [Example 93, 7-(Difluoromethoxy)-6-fluoro-N-((1s,3s)-3-hydroxy-3-methylcyclobutyl)quinoline-3-carboxamide] was 100 to 1000 nM.
Regarding `CC1CCN1c1cc2ncc(C(=O)N[C@H]3CC[C@H](C(C)(C)O)CC3)cc2cc1F` (mixture of isomers) [Example 170, 6-Fluoro-N-(trans-4-(2-hydroxypropan-2-yl)cyclohexyl)-7-(2-methylazetidin-1-yl)quinoline-3-carboxamide], in assay [1] (setting [2]), the IC50 is 10 to 79.4 nM.
On the same count and under the same terms, under `CC[C@]1(O)CC[C@H](NC(=O)c2cnc3cc(OC(F)F)c(F)cc3c2)CC1` [Example 81, 7-(Difluoromethoxy)-N-((1r,4r)-4-ethyl-4-hydroxycyclohexyl)-6-fluoroquinoline-3-carboxamide] stands 10 to 79.4 nM.
On to `CC(C)(O)[C@H]1CC[C@H](NC(=O)c2cnc3cc(F)ccc3c2)CC1` [Example 193, 7-Fluoro-N-(trans-4-(2-hydroxypropan-2-yl)cyclohexyl)quinoline-3-carboxamide], for which the IC50 in assay [1] (in at least one experimental run, read-out: H-PGDS pIC50 value (converted)) was 2000 nM.
Take `O=C(N[C@H]1CC[C@H](N2CC(O)(C(F)(F)F)C2)CC1)c1cnc2cc(OC(F)F)c(F)cc2c1` [Example 92, 7-(Difluoromethoxy)-6-fluoro-N-(trans-4-(3-hydroxy-3-(trifluoromethyl)azetidin-1-yl)cyclohexyl)quinoline-3-carboxamide]: the IC50 in assay [1] (setting [2]) was 10 to 79.4 nM.
